# Measured values reported in ChEMBL document CHEMBL1201862, “PubChem BioAssay data set” (2004).
#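 Exposure lasted 48 hours, with cells grown in 96-well plates and compounds tested at five concentrations. Abbreviation: GI50, concentration required for 50% inhibition of growth.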 Calls of active or inactive are those of the source. Cut-off read from the data, not from the text of the source: active = GI50 up to about 1.1 µM and inactive = higher.
# Experiments:
# Test in all cases: NCI tumour cell line growth inhibition, 48 h
# A498 = test system: A498
# Hs-578T = test system: Hs-578T
# MDA-N = test system: MDA-N
# HT-29 = test system: HT-29
# MDA-MB-435 = test system: MDA-MB-435
# MOLT-4 = test system: MOLT-4
# M14 = test system: M14
# IGROV-1 = test system: IGROV-1
# TK-10 = test system: TK-10
# HCC 2998 = test system: HCC 2998
# SK-OV-3 = test system: SK-OV-3
# SR = test system: SR
# Malme-3M = test system: Malme-3M
# OVCAR-3 = test system: OVCAR-3
# BT-549 = test system: BT-549
# MCF7 = test system: MCF7
# SF-539 = test system: SF-539
# OVCAR-5 = test system: OVCAR-5
# HCT-15 = test system: HCT-15
# MDA-MB-231 = test system: MDA-MB-231
# SW-620 = test system: SW-620
# NCI-H460 = test system: NCI-H460
# HL-60 = test system: HL-60
# A549 = test system: A549
# EKVX = test system: EKVX
# CAKI-1 = test system: CAKI-1
# NCI/ADR-RES = test system: NCI/ADR-RES
# SK-MEL-5 = test system: SK-MEL-5
# OVCAR-8 = test system: OVCAR-8
# DU-145 = test system: DU-145
# LOX IMVI = test system: LOX IMVI
# HOP-92 = test system: HOP-92
# OVCAR-4 = test system: OVCAR-4
# HCT-116 = test system: HCT-116
# NCI-H23 = test system: NCI-H23
# SN12C = test system: SN12C
# T47D = test system: T47D
# KM12 = test system: KM12
# UO-31 = test system: UO-31
# ACHN = test system: ACHN
# NCI-H522 = test system: NCI-H522
# UACC-257 = test system: UACC-257
# UACC-62 = test system: UACC-62
# CCRF-CEM = test system: CCRF-CEM
# K562 = test system: K562
# SK-MEL-2 = test system: SK-MEL-2
# 786-0 = test system: 786-0
# SK-MEL-28 = test system: SK-MEL-28
# NCI-H226 = test system: NCI-H226
# U-251 = test system: U-251
# HOP-62 = test system: HOP-62
# PC-3 = test system: PC-3
# RPMI-8226 = test system: RPMI-8226
# SNB-19 = test system: SNB-19
# COLO 205 = test system: COLO 205
# SNB-75 = test system: SNB-75
# SF-295 = test system: SF-295
# SF-268 = test system: SF-268
# RXF 393 = test system: RXF 393
compound,measurement,setting,value
COc1ccc(-c2c(-c3ccccc3)c(C)c3ccccn23)cc1,GI50,A498,> 100 µM (inactive)
same,GI50,Hs-578T,> 100 µM (inactive)
same,GI50,MDA-N,70.1 µM (inactive)
same,GI50,HT-29,33.4 µM (inactive)
same,GI50,MDA-MB-435,52.2 µM (inactive)
same,GI50,MOLT-4,59.6 µM (inactive)
same,GI50,M14,> 100 µM (inactive)
same,GI50,IGROV-1,> 100 µM (inactive)
same,GI50,TK-10,> 100 µM (inactive)
same,GI50,HCC 2998,> 100 µM (inactive)
same,GI50,SK-OV-3,> 100 µM (inactive)
same,GI50,SR,26.4 µM (inactive)
same,GI50,Malme-3M,95.9 µM (inactive)
same,GI50,OVCAR-3,> 100 µM (inactive)
same,GI50,BT-549,> 100 µM (inactive)
same,GI50,MCF7,57.7 µM (inactive)
same,GI50,SF-539,> 100 µM (inactive)
same,GI50,OVCAR-5,> 100 µM (inactive)
same,GI50,HCT-15,56.9 µM
same,GI50,MDA-MB-231,> 100 µM (inactive)
same,GI50,SW-620,58.9 µM (inactive)
same,GI50,NCI-H460,59.2 µM (inactive)
same,GI50,HL-60,48.4 µM (inactive)
same,GI50,A549,87.3 µM (inactive)
same,GI50,EKVX,99.5 µM (inactive)
same,GI50,CAKI-1,> 100 µM (inactive)
same,GI50,NCI/ADR-RES,> 100 µM (inactive)
same,GI50,SK-MEL-5,77.8 µM (inactive)
same,GI50,OVCAR-8,> 100 µM (inactive)
same,GI50,DU-145,> 100 µM (inactive)
same,GI50,LOX IMVI,83.6 µM (inactive)
same,GI50,HOP-92,> 100 µM (inactive)
same,GI50,OVCAR-4,> 100 µM (inactive)
same,GI50,HCT-116,72.3 µM (inactive)
same,GI50,NCI-H23,> 100 µM (inactive)
same,GI50,SN12C,> 100 µM (inactive)
same,GI50,T47D,22.8 µM (inactive)
same,GI50,KM12,26.3 µM (inactive)
same,GI50,UO-31,> 100 µM (inactive)
same,GI50,ACHN,> 100 µM (inactive)
same,GI50,NCI-H522,57.7 µM (inactive)
same,GI50,UACC-257,49.9 µM (inactive)
same,GI50,UACC-62,> 100 µM (inactive)
same,GI50,CCRF-CEM,28.2 µM (inactive)
same,GI50,K562,50 µM (inactive)
same,GI50,SK-MEL-2,33 µM (inactive)
same,GI50,786-0,> 100 µM (inactive)
same,GI50,SK-MEL-28,79.8 µM (inactive)
same,GI50,NCI-H226,> 100 µM (inactive)
same,GI50,U-251,> 100 µM (inactive)
same,GI50,HOP-62,> 100 µM (inactive)
same,GI50,PC-3,84.3 µM (inactive)
same,GI50,RPMI-8226,47.6 µM (inactive)
same,GI50,SNB-19,> 100 µM (inactive)
same,GI50,COLO 205,80.4 µM (inactive)
same,GI50,SNB-75,> 100 µM (inactive)
same,GI50,SF-295,> 100 µM (inactive)
OC[C@@H](O)[C@H](O)[C@@H](O)/C=N/Nc1ccc(Cl)nn1,GI50,A498,> 100 µM (inactive)
same,GI50,Hs-578T,> 100 µM (inactive)
same,GI50,MDA-N,> 100 µM (inactive)
same,GI50,HT-29,> 100 µM (inactive)
same,GI50,MDA-MB-435,> 100 µM (inactive)
same,GI50,MOLT-4,> 100 µM (inactive)
same,GI50,M14,> 100 µM (inactive)
same,GI50,IGROV-1,> 100 µM (inactive)
same,GI50,TK-10,> 100 µM (inactive)
same,GI50,HCC 2998,> 100 µM (inactive)
same,GI50,SK-OV-3,> 100 µM (inactive)
same,GI50,Malme-3M,> 100 µM (inactive)
same,GI50,OVCAR-3,> 100 µM (inactive)
same,GI50,BT-549,> 100 µM (inactive)
same,GI50,MCF7,> 100 µM (inactive)
same,GI50,SF-539,> 100 µM (inactive)
same,GI50,OVCAR-5,> 100 µM (inactive)
same,GI50,HCT-15,> 100 µM
same,GI50,MDA-MB-231,> 100 µM (inactive)
same,GI50,SW-620,> 100 µM (inactive)
same,GI50,NCI-H460,> 100 µM (inactive)
same,GI50,HL-60,> 100 µM (inactive)
same,GI50,A549,> 100 µM (inactive)
same,GI50,EKVX,> 100 µM (inactive)
same,GI50,CAKI-1,> 100 µM (inactive)
same,GI50,NCI/ADR-RES,> 100 µM (inactive)
same,GI50,SK-MEL-5,> 100 µM (inactive)
same,GI50,OVCAR-8,> 100 µM (inactive)
same,GI50,DU-145,> 100 µM (inactive)
same,GI50,LOX IMVI,> 100 µM (inactive)
same,GI50,HOP-92,> 100 µM (inactive)
same,GI50,OVCAR-4,> 100 µM (inactive)
same,GI50,HCT-116,> 100 µM (inactive)
same,GI50,NCI-H23,> 100 µM (inactive)
same,GI50,SN12C,> 100 µM (inactive)
same,GI50,T47D,> 100 µM (inactive)
same,GI50,KM12,> 100 µM (inactive)
same,GI50,ACHN,> 100 µM (inactive)
same,GI50,NCI-H522,> 100 µM (inactive)
same,GI50,UACC-257,> 100 µM (inactive)
same,GI50,UACC-62,> 100 µM (inactive)
same,GI50,SF-268,> 100 µM (inactive)
same,GI50,CCRF-CEM,> 100 µM (inactive)
same,GI50,SK-MEL-2,> 100 µM (inactive)
same,GI50,786-0,> 100 µM (inactive)
same,GI50,SK-MEL-28,> 100 µM (inactive)
same,GI50,U-251,> 100 µM (inactive)
same,GI50,HOP-62,> 100 µM (inactive)
same,GI50,PC-3,> 100 µM (inactive)
same,GI50,RPMI-8226,> 100 µM (inactive)
same,GI50,SNB-19,> 100 µM (inactive)
same,GI50,RXF 393,> 100 µM (inactive)
same,GI50,COLO 205,> 100 µM (inactive)
same,GI50,SF-295,> 100 µM (inactive)
CN(Cc1cnc2nc(N)nc(N)c2n1)c1ccc(C(=O)NCCCS(=O)(=O)O)cc1,GI50,A498,> 100 µM (inactive)
same,GI50,Hs-578T,> 100 µM (inactive)
same,GI50,MDA-N,> 100 µM (inactive)
same,GI50,HT-29,> 100 µM (inactive)
same,GI50,MDA-MB-435,> 100 µM (inactive)
same,GI50,MOLT-4,> 100 µM (inactive)
same,GI50,M14,> 100 µM (inactive)
same,GI50,IGROV-1,> 100 µM (inactive)
same,GI50,TK-10,> 100 µM (inactive)
same,GI50,HCC 2998,> 100 µM (inactive)
same,GI50,SK-OV-3,> 100 µM (inactive)
same,GI50,SR,37.6 µM (inactive)
same,GI50,Malme-3M,> 100 µM (inactive)
same,GI50,OVCAR-3,> 100 µM (inactive)
same,GI50,BT-549,> 100 µM (inactive)
same,GI50,MCF7,> 100 µM (inactive)
same,GI50,SF-539,> 100 µM (inactive)
same,GI50,OVCAR-5,> 100 µM (inactive)
same,GI50,HCT-15,> 100 µM
same,GI50,MDA-MB-231,> 100 µM (inactive)
same,GI50,SW-620,> 100 µM (inactive)
same,GI50,NCI-H460,> 100 µM (inactive)
same,GI50,A549,> 100 µM (inactive)
same,GI50,EKVX,> 100 µM (inactive)
same,GI50,NCI/ADR-RES,> 100 µM (inactive)
same,GI50,SK-MEL-5,> 100 µM (inactive)
same,GI50,OVCAR-8,> 100 µM (inactive)
same,GI50,DU-145,> 100 µM (inactive)
same,GI50,LOX IMVI,75.9 µM (inactive)
same,GI50,HOP-92,0.0264 µM (active)
same,GI50,OVCAR-4,> 100 µM (inactive)
same,GI50,HCT-116,83.9 µM (inactive)
same,GI50,NCI-H23,> 100 µM (inactive)
same,GI50,SN12C,> 100 µM (inactive)
same,GI50,T47D,> 100 µM (inactive)
same,GI50,KM12,> 100 µM (inactive)
same,GI50,UO-31,> 100 µM (inactive)
same,GI50,ACHN,> 100 µM (inactive)
same,GI50,NCI-H522,> 100 µM (inactive)
same,GI50,UACC-257,> 100 µM (inactive)
same,GI50,UACC-62,> 100 µM (inactive)
same,GI50,SF-268,> 100 µM (inactive)
same,GI50,K562,> 100 µM (inactive)
same,GI50,SK-MEL-2,> 100 µM (inactive)
same,GI50,786-0,> 100 µM (inactive)
same,GI50,SK-MEL-28,> 100 µM (inactive)
same,GI50,NCI-H226,> 100 µM (inactive)
same,GI50,U-251,> 100 µM (inactive)
same,GI50,HOP-62,> 100 µM (inactive)
same,GI50,PC-3,> 100 µM (inactive)
same,GI50,RPMI-8226,> 100 µM (inactive)
same,GI50,SNB-19,> 100 µM (inactive)
same,GI50,COLO 205,> 100 µM (inactive)
same,GI50,SNB-75,> 100 µM (inactive)
same,GI50,SF-295,> 100 µM (inactive)
